Converted amounts (≈) assume the structure as drawn. Like-named read-outs stand apart in the source and are kept apart here. Where no end group is shown, it is not given here.
Tests used:
[1] = system: Streptococcus agalactiae ATCC 27956; assay: microbe, parasite or virus in culture; assay type: cell-based
Experimental: (§1) The standard bacterial strains used for antimicrobial activity assays include Staphylococcus aureus ATCC (American Type Culture Collection, Manassas, VA, USA) 6538, Bacillus cereus ATCC 10876, Enterococcus faecalis ATCC 29212, Streptococcus […] 27956, Streptococcus dysgalactiae ATCC 27957, Streptococcus equi subsp. zooepidemicus ATCC 43079, Escherichia coli ATCC 25922, and Pseudomonas aeruginosa ATCC 27853. Most bacterial strains were cultured in LB medium except for E. faecalis and streptococci, which were cultivated in brain heart infusion (BHI) broth (BD Bioscience). […] Experiments were conducted in triplicate.

[2] = system: Escherichia coli ATCC 25922; assay: microbe, parasite or virus in culture; assay type: cell-based; conditions: Escherichia coli, ATCC25922, 8 h, MH broth, WST colourimetric, 1.5 × 10^5 cells/well, 37 °C 6 h + 2 h reagent, A450, triplicate, read-out: Minimal inhibitory concentration, Escherichia coli
Experimental: as §1

[3] = system: Staphylococcus aureus ATCC 6538; assay: microbe, parasite or virus in culture; assay type: cell-based
Experimental: as §1

[4] = system: Bacillus cereus ATCC 10876; assay: microbe, parasite or virus in culture; assay type: cell-based
Experimental: as §1

[5] = system: Streptococcus equi subsp. zooepidemicus ATCC 43079; assay: microbe, parasite or virus in culture; assay type: cell-based
Experimental: as §1

[6] = system: Streptococcus dysgalactiae ATCC 27957; assay: microbe, parasite or virus in culture; assay type: cell-based
Experimental: as §1

[7] = system: Pseudomonas aeruginosa ATCC 27853; assay: microbe, parasite or virus in culture; assay type: cell-based
Experimental: as §1

[8] = system: Enterococcus faecalis ATCC 29212; assay: microbe, parasite or virus in culture; assay type: cell-based
Experimental: as §1

[9] = system: Staphylococcus haemolyticus; assay: MIC against field isolate from milk with high SCC; assay type: cell-based; conditions: Staphylococcus haemolyticus, read-out: Minimal inhibitory concentration, Staphylococcus haemolyticus
Experimental: (§2) All plates were cultivated aerobically.
(§3) Experiments were conducted in triplicate.

Aeromonas hydrophila = assay: microbe, parasite or virus in culture; assay type: cell-based; conditions: Aeromonas hydrophila; Gram-negative field isolate from milk; BHI broth; WST colourimetric, 37 °C 6 h; triplicate; read-out: Minimal inhibitory concentration, Aeromonas hydrophila
Experimental: as §2, §3

Staphylococcus xylosus = assay: microbe, parasite or virus in culture; assay type: cell-based; conditions: for MIC: Staphylococcus xylosus, read-out: Minimal inhibitory concentration, Staphylococcus xylosus
Experimental: as §2, §3

[10] = system: Staphylococcus chromogenes; assay: microbe, parasite or virus in culture; assay type: cell-based; conditions: for MIC: Staphylococcus chromogenes, read-out: Minimal inhibitory concentration, Staphylococcus chromogenes
Experimental: as §2, §3

Streptococcus uberis = assay: microbe, parasite or virus in culture; assay type: cell-based
Experimental: as §2, §3

[11] = system: Glutamicibacter halophytocola; assay: microbe, parasite or virus in culture; assay type: cell-based
Experimental: as §2, §3

[12] = system: Staphylococcus epidermidis; assay: microbe, parasite or virus in culture; assay type: cell-based
Experimental: as §2, §3

Corynebacterium simulans = assay: microbe, parasite or virus in culture; assay type: cell-based
Experimental: as §2, §3

[13] = system: field isolates from milk with high SCCs; conditions: all field isolates except A. hydrophila; range stated for the three peptides
Experimental: The minimum inhibitory concentration (MIC) was determined by following the manufacturer’s protocol and Clinical and Laboratory Standards Institute (CLSI) guidelines (2018) using a colourimetric method specified by the Microbial Viability Assay Kit-WST (Dojindo, Kumamoto, Japan). Four colonies of each bacterium were inoculated into 5 mL of LB medium and incubated at 37 °C for 4–6 h. The cells were then washed twice with sterile saline (0.9% NaCl) and seeded into a single well of a 96-well plate at a density of 1.5 × 10^5 cells/well, adjusting by McFarland standard 0.5. Subsequently, 180 µL/well of fresh MH broth (BD Bioscience) was added to the plate. Ampicillin, chloramphenicol, and gentamicin sulfate were used as controls for antimicrobial activity.
Different concentrations of each peptide and reference antibiotics (up to 40 µg/mL) were serially diluted in 10 µL of MH broth and added to each well. The plate was incubated at 37 °C for 6 h, using BHI broth to culture slow-growing fastidious strains, including E. faecalis, A. hydrophila, C. simulans, G. halophytocola, and streptococci. Cation-adjusted Mueller Hinton II broth (CAMHB) was employed to cultivate P. aeruginosa. Afterwards, 10 µL of the colouring reagent was added, and cells were incubated at 37 °C for 2 h. UV absorbance was measured for each well at 450 nm using a microplate spectrophotometer (xMark spectrophotometer; Bio-Rad, Hercules, CA, USA). The MIC values were determined when the absorbance difference between treatments and blanks (media and colouring reagent only) decreased to < 0.05. Experiments were conducted in triplicate.

[14] = system: all bacterial strains in the panel and field isolates from milk; assay type: cell-based; conditions: against all bacterial strains in the panel and field isolates from milk
Experimental: The standard bacterial strains used for antimicrobial activity assays include Staphylococcus aureus ATCC (American Type Culture Collection, Manassas, VA, USA) 6538, Bacillus cereus ATCC 10876, Enterococcus faecalis ATCC 29212, Streptococcus agalactiae ATCC 27956, Streptococcus dysgalactiae ATCC 27957, Streptococcus equi subsp. zooepidemicus ATCC 43079, Escherichia coli ATCC 25922, and Pseudomonas aeruginosa ATCC 27853. Most bacterial strains were cultured in LB medium except for E. faecalis and streptococci, which were cultivated in brain heart infusion (BHI) broth (BD Bioscience).
as §2, §3

E. coli (ATCC 25922) = assay type: in vitro ADME, Escherichia coli
Experimental: The MICs against E. coli (ATCC 25922) for cc-CATH3, ML-CATH, and PD-CATH in 150 mM NaCl and different pH (pH 5, 6, and 7) that were adjusted using acetic acid (Sigma Aldrich) were determined as described above. For serum stability assay, each AMP at four different concentrations was dissolved in 50% (v/v) FBS (Hyclone™) and incubated at 37 °C for 0, 60, and 120 min, respectively. As described in a previous study, ΔHg-CATH was used as a control for serum sensitivity. The antimicrobial activity of cc-CATH3, ML-CATH, and PD-CATH against E. coli was assessed for each condition as above. All experiments were conducted in triplicate.
Figure 2 Changes in the antibacterial activity of cc-CATH3, ML-CATH, and PD-CATH after incubation with naïve serum. cc-CATH3, ML-CATH, and PD-CATH peptides were incubated in 50% (v/v) FBS each for 0, 60, and 120 min before applying to antimicrobial activity assay against E. coli (ATCC 25922). The antimicrobial activity was determined by measuring bacterial growth at OD 450 nm. The X and Y axes indicate peptide concentration and absorbance at 450 nm, respectively. Samples containing 50% FBS in the absence of the peptides indicate a control for bacterial growth without AMP treatments. The antimicrobial activity of cc-CATH3 (A), ML-CATH (B), and PD-CATH (C) after the treatment of FBS-incubated AMPs was shown.

bovine erythrocytes = assay: Haemolytic activity; assay type: cell-based; conditions: OD 410 nm, repeated three times
Experimental: The experimental procedures were conducted in accordance with the guidelines approved by the Institutional Animal Care and Use Committee (IACUC) of Konkuk University, Seoul, Korea, and bovine blood was collected from a cow at a local farm using a BD Vacutainer® Sodium Heparin (BD Bioscience) to analyse haemolytic activity. Plasma was removed from the whole blood by centrifugation. Erythrocytes were washed thrice with phosphate-buffered saline (PBS, pH 7.4) and resuspended in PBS at a concentration of 2% (v/v). Subsequently, 100 µL of the erythrocyte suspension was added to each well of a 96-well microtiter plate. The plate contained an equal volume of the peptides in PBS with different concentrations of 10, 20, 40, 80, and 160 μg/mL. Triton-X 100 (1%) and PBS were used as positive and negative controls, respectively. Plates were incubated at 37 °C for 1 h. The release of haemoglobin into the supernatant was monitored by measuring the change in OD at 410 nm using a microplate reader (xMark™ spectrophotometer; Bio-Rad). Results from three independent experiments were pooled. Hemolysis was calculated using the formula: HemolyticPercentage(%)=100×(ODpeptide-ODnegative)/(ODpositive-ODnegative)
All experiments were carried out in triplicate.

[15] = system: eight standard bacterial strains; assay type: cell-based; conditions: all eight standard strains; range stated for the three peptides
Experimental: as §1

PK15 cells = assay: Cytotoxicity, WST-1 cell viability; conditions: 24 h, 37 °C, repeated three times
Experimental: (§4) Human keratinocytes (HaCaT) and pig kidney fibroblast cells (PK15, ATCC CCL-33) were cultured in Dulbecco’s modified Eagle’s medium (DMEM; Hyclone™, Logan, UT, USA) and supplemented with 10% foetal bovine serum (FBS; Hyclone™, Logan, UT, USA), 1% penicillin–streptomycin (Hyclone™) at 37 °C, and 5% CO2 up to 80% confluence. Cell substratum adhesion was disrupted using Accutase (Innovative Cell Technologies, San Diego, CA, USA). A total of 4 × 10^4 cells were incubated for 24 h at 37 °C and 5% CO2 in each well of a 96-well plate containing 64 and 160 µg/mL of each peptide.
(§5) A positive control for complete cell lysis was established using Triton-X100 (1%), and untreated cells were used as the negative control. After incubation, the medium was removed from the wells and replaced with 10 µL of colouring solution (Cell Proliferation Reagent WST-1™) and 100 µL of DMEM (Hyclone™), per the manufacturer’s protocol. Each well absorbance was measured at 440 nm (peptide-treated and control) and 650 nm (background). These measurements were recorded as the optical density (OD) using a microplate reader (xMark™ spectrophotometer; Bio-Rad, CA, USA). Cell viability was calculated using the following equation: CellViability(%)=100×(ODpeptide-ODbackground)/(ODnegative-ODbackground)
(§6) All experiments were performed in triplicate.

HaCaT cells = assay: Cytotoxicity, WST-1 cell viability; conditions: 24 h, 37 °C, repeated three times
Experimental: as §4, §5, §6

[16] = field isolate from milk, WST colourimetric, 37 °C 6 h, triplicate
[17] = value in brackets, Additional file 6, field isolate

Compound: CNC(C)C1CCC(N)C(OC2C(N)CC(N)C(OC3OCC(C)(O)C(NC)C3O)C2O)O1 (centres unmarked) [Gentamicin, reference compound]
- MIC ([1]; Streptococcus agalactiae, ATCC27956, ATCC 27956, BHI broth, WST colourimetric, 37 °C 6 h, triplicate, read-out: Minimal inhibitory concentration, Streptococcus agalactiae): 75 µg/mL (≈ 157 µM)
- MIC [2]: 1 µg/mL
- MIC ([3]; Staphylococcus aureus, ATCC6538, ATCC 6538, MH broth, WST colourimetric, 37 °C 6 h, triplicate, read-out: Minimal inhibitory concentration, Staphylococcus aureus): 1 µg/mL (≈ 2.09 µM)
- MIC ([4]; Bacillus cereus, ATCC10876, ATCC 10876, MH broth, WST colourimetric, 37 °C 6 h, triplicate, read-out: Minimal inhibitory concentration, Bacillus cereus): 1 µg/mL (≈ 2.09 µM)
- MIC ([5]; Streptococcus equi, ATCC43079, ATCC 43079, BHI broth, WST colourimetric, 37 °C 6 h, triplicate, read-out: Minimal inhibitory concentration, Streptococcus equi subsp. zooepidemicus): 45 µg/mL (≈ 94.2 µM)
- MIC ([6]; Streptococcus dysgalactiae, ATCC27957, ATCC 27957, BHI broth, WST colourimetric, 37 °C 6 h, triplicate, read-out: Minimal inhibitory concentration, Streptococcus dysgalactiae): 15 µg/mL (≈ 31.4 µM)
- MIC ([7]; Pseudomonas aeruginosa, ATCC27853, ATCC 27853, CAMHB, WST colourimetric, 37 °C 6 h, triplicate, read-out: Minimal inhibitory concentration, Pseudomonas aeruginosa): 1 µg/mL (≈ 2.09 µM)
- MIC ([8]; Enterococcus faecalis, ATCC29212, ATCC 29212, BHI broth, WST colourimetric, 37 °C 6 h, triplicate, read-out: Minimal inhibitory concentration, Enterococcus faecalis): 90 µg/mL (≈ 188 µM)
- MIC [9, 16]: 10 µg/mL
- MIC [9, 17]: 0.0209 µM
- MIC (Aeromonas hydrophila): 4 µg/mL (≈ 8.38 µM)
- MIC (Staphylococcus xylosus; [16]): 1 µg/mL
- MIC (Staphylococcus xylosus; [17]): 2.1 nM
- MIC [10, 16]: 2 µg/mL
- MIC [10, 17]: 4.2 nM
- MIC (Streptococcus uberis; Streptococcus uberis, field isolate from milk, BHI broth, WST colourimetric, 37 °C 6 h, triplicate, read-out: Minimal inhibitory concentration, Streptococcus uberis): 60 µg/mL (≈ 126 µM)
- MIC ([11]; Glutamicibacter halophytocola, field isolate from milk, BHI broth, WST colourimetric, 37 °C 6 h, triplicate, read-out: Minimal inhibitory concentration, Glutamicibacter halophytocola): 3 µg/mL (≈ 6.28 µM)
- MIC ([12]; Staphylococcus epidermidis, field isolate from milk, WST colourimetric, 37 °C 6 h, triplicate, read-out: Minimal inhibitory concentration, Staphylococcus epidermidis): 4 µg/mL (≈ 8.38 µM)
- MIC (Corynebacterium simulans; Corynebacterium simulans, field isolate from milk, BHI broth, WST colourimetric, 37 °C 6 h, triplicate, read-out: Minimal inhibitory concentration, Corynebacterium simulans): 10 µg/mL (≈ 20.9 µM)

Compound: ILGPALRIGGRIAGRIAGKLIGDAINRHRERNRQRRG [PD-CATH]
- Minimal inhibitory concentration, Streptococcus agalactiae ([1]; ATCC 27956, 6 h): 8 (2.0) μg/mL
- Minimal inhibitory concentration, Staphylococcus aureus ([3]; ATCC 6538, 6 h): 3 (0.7) μg/mL
- Minimal inhibitory concentration, Bacillus cereus ([4]; ATCC 10876, 6 h): 6 (1.5) μg/mL
- Minimal inhibitory concentration, Streptococcus equi subsp. zooepidemicus ([5]; ATCC 43079, 6 h): 17 (4.2) μg/mL
- Minimal inhibitory concentration, Streptococcus dysgalactiae ([6]; ATCC 27957, 6 h): 18 (4.4) μg/mL
- Minimal inhibitory concentration, Pseudomonas aeruginosa ([7]; ATCC 27853, 6 h): 42 (10.3) μg/mL
- Minimal inhibitory concentration, Enterococcus faecalis ([8]; ATCC 29212, 6 h): 6 (1.5) μg/mL
- MICs, range over field isolates [13]: 0.8 to 5 µg/mL
- minimum inhibitory concentration, range over strains [14]: 0.2 to 10.3 µM
- antibacterial activity after incubation with serum (E. coli (ATCC 25922)): remained unaffected under all the tested conditions
- Haemolytic activity against bovine erythrocytes (bovine erythrocytes; 10 μg/mL, 2% (v/v) erythrocytes in PBS pH 7.4, 37 °C 1 h, mean ± SD): 0.4 ± 0.2%
- Haemolytic activity against bovine erythrocytes (bovine erythrocytes; 20 μg/mL, 2% erythrocytes in PBS pH 7.4, 37 °C 1 h): 0.7 ± 0.4%
- Haemolytic activity against bovine erythrocytes (bovine erythrocytes; 40 μg/mL, 2% erythrocytes in PBS pH 7.4, 37 °C 1 h): 2.9 ± 0.2%
- Haemolytic activity against bovine erythrocytes (bovine erythrocytes; 80 μg/mL, 2% erythrocytes in PBS pH 7.4, 37 °C 1 h): 3.5 ± 0.2%
- MICs, range over all bacterial species in the test panel [15]: 2 to 42 µg/mL
- Cell viability ± SD, PK15 (PK15 cells; 64 μg/mL peptide): 43.6 ± 1.7%
- Cell viability ± SD, PK15 (PK15 cells; 160 μg/mL peptide): 7.4 ± 0.2%
- Minimal inhibitory concentration, Staphylococcus xylosus (Staphylococcus xylosus; 6 h): 3 (0.7) μg/mL
- Minimal inhibitory concentration, Staphylococcus chromogenes ([10]; 6 h): 4 (1.0) μg/mL
- Minimal inhibitory concentration, Streptococcus uberis (Streptococcus uberis; 6 h): 5 (1.2) μg/mL
- Minimal inhibitory concentration, Glutamicibacter halophytocola ([11]; 6 h): 1 µg/mL
- Minimal inhibitory concentration, Staphylococcus epidermidis ([12]; 6 h): 3 (0.7) μg/mL
- Minimal inhibitory concentration, Corynebacterium simulans (Corynebacterium simulans; 6 h): 1 µg/mL
- Cell viability ± SD, HaCaT (HaCaT cells; 64 μg/mL peptide): 100.2 ± 0.2%
- Cell viability ± SD, HaCaT (HaCaT cells; 160 μg/mL peptide): 11.4 ± 0.5%
